# Data: patent publication US8815863B2, “Compounds and therapeutic use thereof for protein kinase inhibition” (priority 2009, dated 2014)
# Entries after “also recorded” stand apart in the source; their conditions may differ. Like-named read-outs stand apart in the source and are kept apart here.
# How the values were obtained:
# [1] = test system: human liver cancer QGY-7701; test: MTT cytotoxicity, QGY-7701; assay type: cell-based
# Description: (§1) Cell lines: human low differentiation stomach cancer BGC-823, human liver cancer QGY-7701, mouse lung cancer 3LL.
# (§2) Experimental Details: The cyto-toxicity of XC608 is measured using the MTT method. Specifically: (1) cell culture: (i) frozen cells are removed from liquid nitrogen, rapidly thawed in 37° C. water bath; added to 6 ml DMEM culture medium in a 10 ml centrifuge tubes under sterile conditions, centrifuged at 1000 rpm for 5 min., with the supernatant removed. To the sediment is added 5-6 ml of DMEM medium, and re-suspended and cultured overnight at 37° C. (ii) The cells are centrifuged, washed twice with PBS, and treated with 3-4 drops of trypsin solution for about 3 minute at 37° C., and monitored under microscope to ensure that all cells are separated from the culture tube walls, and re-suspended in additional DMEM medium. […] (2) Test compound preparation: XC608 and XC302 are dissolved in PBS and serial diluted to 1000, 100, 10, 1, 0.1 and 0.01 μg/ml. (3) The prepared test compound solution is added to the holes of a 96-hole culture plate, 10 μl/hole, with two holes per concentration point, and 10 μl PBS as control. (4) Prepare a suspension of log phase cell in a DMEM medium containing 10% new born bovine serum with a cell concentration of 2×10^5/ml.
# (§3) (5) add 90 μl cell suspension to each of the holes containing the test compound or control. […]
# [2] = test system: human low differentiation stomach cancer BGC-823; test: MTT cytotoxicity, BGC-823; assay type: cell-based
# Description: as §1, §2, §3
# mouse lung cancer 3LL = test: MTT cytotoxicity, 3LL; assay type: cell-based; conditions: 48 hours
# Description: as §1, §2, §3
# HT-29 Cell line = test: SRB cell multiplication test, sensitizing to cytotoxic antitumor drugs; conditions: for sensitizing effects on cytotoxic antitumor drugs at the cellular level (in words): DDP, 5-fu, pemetrexed, oxaliplatin as named in the sentence
# Description: 3.2 Cell Lines: HT-29 Cell line (from ATCC).
# Test Protocol: The effects of the compounds on cancer cell multiplication was measured using Sulforhodamine B (SRB). Specifically, log phase cells are inoculated into the holes of 96-hole culture plates, allowed to grow using the wall-adhesion procedure at 37° C. under 5% CO2. The test compound at 9 different concentrations were added, each concentration in duplicate, with appropriate saline water and cell-less controls. The cells are cultured for a further 72 hours, and fixed with TCA, and SRB is added for staining, and washed, and air-dried. After adding the Tris solution, the OD value was measured at 510 nm using a Spectra Max 190. The rate of inhibition is calculated according to the formula below: Rate of Inhibition=(ODcontrol−ODdrug)/ODcontrol×100%.
# The IC50 is calculated based on the above ratios.
# Human colon cancer HT-29 [3] = test: In vitro anti-cancer cell activity, HT-29; assay type: cell-based; conditions: read-out: In vitro anti-cancer cell activities IC50, Human colon cancer HT-29
# Description: (§4) Some of the above compounds are tested in vitro or in vivo for their anti-cancer or anti-tumor activities, as well as cellular toxicity tests using SRB and MTT methods. The in vitro anti-cancer effects on human cancer HT-29 and mouse lung cancer cell 3LL are summarized in Table 1, and the effects on treating transplanted human colon cancer […] on nude mice are summarized in Table 2.
# Mouse Lung Cancer (3LL) = test: In vitro anti-cancer cell activity, 3LL; assay type: cell-based; conditions: read-out: In vitro anti-cancer cell activities IC50, Mouse Lung Cancer (3LL)
# Description: as §4
# Chk1 = target: T1, Chk1 (Homo sapiens, UniProt O14757); test: Kinase activity measurement (K-LISA), Chk1; assay type: biochemical
# T1 construct: purchased Upstate Biotechnology, Inc
# T1 sequence (O14757 1-476): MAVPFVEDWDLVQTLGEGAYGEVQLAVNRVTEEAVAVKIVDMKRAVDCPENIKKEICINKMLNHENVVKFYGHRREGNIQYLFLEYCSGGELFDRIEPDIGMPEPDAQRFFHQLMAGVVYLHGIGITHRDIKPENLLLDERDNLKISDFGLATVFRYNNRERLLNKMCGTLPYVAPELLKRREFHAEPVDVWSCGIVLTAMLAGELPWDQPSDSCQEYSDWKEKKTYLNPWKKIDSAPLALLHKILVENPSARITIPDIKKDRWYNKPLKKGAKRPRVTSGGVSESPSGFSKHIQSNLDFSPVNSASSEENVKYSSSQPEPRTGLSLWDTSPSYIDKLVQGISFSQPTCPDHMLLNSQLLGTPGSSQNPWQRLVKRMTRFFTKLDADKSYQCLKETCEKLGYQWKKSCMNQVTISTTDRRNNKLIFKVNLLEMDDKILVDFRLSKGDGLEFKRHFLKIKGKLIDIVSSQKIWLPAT
# Description: The K-LISA™ Chk-1/Chk2 Activity Kit was supplied by Calibiochem (Cat. No. CBA020). Chk1 and Chk2 are from Upstate Biotechnology, Inc., and C-Met, HER2, EGFR are from Sigma.
# (§5) After the reaction is terminated with a stop buffer, the contents are discarded, replaced with 100 μl/hole of serine kinase antibody, to detect phosphorylation, and HRP-labeled goat-anti-rabbit IgG is added and incubated at room temperature for 1 hour. TMB reaction is conducted to determine substrate phosphorylation, with proper controls. OD450 is measured using VERSAmax (Sunnyvale, Calif., USA). The rate of inhibition is calculated as the follows: Rate of Inhibition (I)=(reaction hole OD Value−OD value of Enzyme-free control)/(OD value of negative control−OD value of enzyme-free control)×100%.
# [4] = test system: human colon cancer SW-620; test: Nude mice transplanted with human colon cancer SW-620, XC608 with ADR and 5-fu; assay type: in vivo; conditions: SW-620 in nude mice
# Description: (§6) Nude mice transplanted with human colon cancer HT-29 and SW-620 and breast cancer MDA-MB-231 are tested using XC608 alone and in combination with ADR and 5-fu.
# HER2 = target: T2, HER2 (Homo sapiens, UniProt P04626); test: Kinase activity measurement, HER2; assay type: biochemical
# T2 construct: purchased Sigma
# T2 sequence (P04626 23-1255): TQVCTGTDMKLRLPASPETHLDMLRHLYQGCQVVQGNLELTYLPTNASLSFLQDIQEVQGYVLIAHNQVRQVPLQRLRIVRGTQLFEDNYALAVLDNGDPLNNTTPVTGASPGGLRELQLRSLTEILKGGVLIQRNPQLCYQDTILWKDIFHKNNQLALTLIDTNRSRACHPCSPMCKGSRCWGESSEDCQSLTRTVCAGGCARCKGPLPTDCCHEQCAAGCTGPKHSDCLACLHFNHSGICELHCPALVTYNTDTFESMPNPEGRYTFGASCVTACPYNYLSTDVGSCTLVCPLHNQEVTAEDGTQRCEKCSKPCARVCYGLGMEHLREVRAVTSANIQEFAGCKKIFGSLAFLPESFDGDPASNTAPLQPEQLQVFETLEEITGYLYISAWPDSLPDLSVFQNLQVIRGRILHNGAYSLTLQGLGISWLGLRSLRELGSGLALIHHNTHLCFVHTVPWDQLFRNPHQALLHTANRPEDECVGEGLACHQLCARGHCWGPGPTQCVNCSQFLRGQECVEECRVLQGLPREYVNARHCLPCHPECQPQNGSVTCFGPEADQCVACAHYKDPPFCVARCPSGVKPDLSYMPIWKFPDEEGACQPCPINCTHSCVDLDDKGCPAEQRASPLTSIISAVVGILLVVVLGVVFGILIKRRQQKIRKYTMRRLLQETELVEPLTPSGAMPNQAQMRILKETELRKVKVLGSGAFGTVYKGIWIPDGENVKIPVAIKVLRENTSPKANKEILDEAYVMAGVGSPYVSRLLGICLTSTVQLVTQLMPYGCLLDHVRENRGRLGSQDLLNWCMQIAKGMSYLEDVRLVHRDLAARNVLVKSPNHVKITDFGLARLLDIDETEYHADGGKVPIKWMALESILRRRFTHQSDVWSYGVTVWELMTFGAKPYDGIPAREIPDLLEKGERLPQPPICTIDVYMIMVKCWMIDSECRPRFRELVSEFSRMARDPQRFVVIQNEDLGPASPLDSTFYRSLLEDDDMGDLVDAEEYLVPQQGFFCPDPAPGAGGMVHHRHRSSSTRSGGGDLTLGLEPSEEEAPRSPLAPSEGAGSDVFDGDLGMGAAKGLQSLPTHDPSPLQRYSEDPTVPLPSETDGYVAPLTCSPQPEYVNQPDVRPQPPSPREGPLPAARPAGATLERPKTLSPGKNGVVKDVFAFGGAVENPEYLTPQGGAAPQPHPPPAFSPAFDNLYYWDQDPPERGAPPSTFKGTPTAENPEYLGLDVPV
# Description: (§7) The K-LISA™ Chk-1/Chk2 Activity Kit was supplied by Calibiochem (Cat. No. CBA020). Chk1 and Chk2 are from Upstate Biotechnology, Inc., and C-Met, HER2, EGFR are from Sigma. The Chk Peptide ([…]) (SEQ ID NO: 1) is from Cell Signaling, Inc., (Beverly, Mass., USA), and is stored at −70° C.
# as §5, with “Kinase activity measurements: Enzyme, sample, Chk peptide, 5 μm ATP, and reaction buffer are added to the holes of biotinylated reaction plates. After” for “After”
# EGFR = target: T3, EGFR (Homo sapiens, UniProt P00533); test: Kinase activity measurement, EGFR; assay type: biochemical
# T3 construct: purchased Sigma
# T3 sequence (P00533 25-1210): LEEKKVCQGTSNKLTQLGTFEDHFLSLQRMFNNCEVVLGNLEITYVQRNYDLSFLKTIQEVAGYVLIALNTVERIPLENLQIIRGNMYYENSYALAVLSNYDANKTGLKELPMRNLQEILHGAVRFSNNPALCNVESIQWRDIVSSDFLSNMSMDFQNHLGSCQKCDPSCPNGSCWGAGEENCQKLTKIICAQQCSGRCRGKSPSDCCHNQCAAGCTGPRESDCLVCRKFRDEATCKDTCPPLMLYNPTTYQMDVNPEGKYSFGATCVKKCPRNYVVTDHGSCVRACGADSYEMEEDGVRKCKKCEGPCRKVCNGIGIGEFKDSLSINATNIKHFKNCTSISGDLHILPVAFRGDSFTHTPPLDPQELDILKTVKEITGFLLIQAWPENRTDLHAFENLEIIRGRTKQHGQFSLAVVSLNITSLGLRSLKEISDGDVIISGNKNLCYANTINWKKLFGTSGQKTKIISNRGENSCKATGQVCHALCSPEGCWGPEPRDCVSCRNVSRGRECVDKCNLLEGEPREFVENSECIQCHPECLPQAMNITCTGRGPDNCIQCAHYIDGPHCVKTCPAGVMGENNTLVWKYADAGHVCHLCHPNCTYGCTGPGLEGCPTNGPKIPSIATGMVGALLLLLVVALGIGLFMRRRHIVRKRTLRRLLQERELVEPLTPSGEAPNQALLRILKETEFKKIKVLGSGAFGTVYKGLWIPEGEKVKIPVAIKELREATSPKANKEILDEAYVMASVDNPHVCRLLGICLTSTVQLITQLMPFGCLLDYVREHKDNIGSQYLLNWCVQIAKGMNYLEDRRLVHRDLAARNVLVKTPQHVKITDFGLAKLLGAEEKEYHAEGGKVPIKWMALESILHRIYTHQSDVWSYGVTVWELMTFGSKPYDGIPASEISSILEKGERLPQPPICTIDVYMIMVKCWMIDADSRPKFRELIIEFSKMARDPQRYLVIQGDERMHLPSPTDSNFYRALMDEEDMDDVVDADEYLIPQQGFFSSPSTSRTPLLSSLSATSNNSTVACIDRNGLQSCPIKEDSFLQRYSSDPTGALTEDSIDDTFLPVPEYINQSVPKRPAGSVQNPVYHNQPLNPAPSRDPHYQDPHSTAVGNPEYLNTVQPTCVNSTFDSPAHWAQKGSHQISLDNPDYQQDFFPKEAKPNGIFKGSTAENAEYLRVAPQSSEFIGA
# Description: as §7
# as §5, with “Kinase activity measurements: Enzyme, sample, Chk peptide, 5 μm ATP, and reaction buffer are added to the holes of biotinylated reaction plates. After” for “After”
# human colon cancer HT-29 [5] = test: Nude mice transplanted with human colon cancer HT-29, XC608 with ADR and 5-fu; assay type: in vivo; conditions: HT-29 in nude mice
# Description: as §6
# cdc2 phosphorylation = cdc2 phosphorylation induced by topoisomerase I; assay type: cell-based
# Source text: The effects of XC608 on the activity of protein kinases Chk1, Chk2 and c-met, and on cells entering cell cycle after drug-induced DNA damages and cellular reactions to DNA damages are studied.
# Chk2 = target: T4, Chk2 (Homo sapiens, UniProt O96017); test: Kinase activity measurement (K-LISA), Chk2; assay type: biochemical
# T4 construct: purchased Upstate Biotechnology, Inc
# T4 sequence (O96017 whole entry): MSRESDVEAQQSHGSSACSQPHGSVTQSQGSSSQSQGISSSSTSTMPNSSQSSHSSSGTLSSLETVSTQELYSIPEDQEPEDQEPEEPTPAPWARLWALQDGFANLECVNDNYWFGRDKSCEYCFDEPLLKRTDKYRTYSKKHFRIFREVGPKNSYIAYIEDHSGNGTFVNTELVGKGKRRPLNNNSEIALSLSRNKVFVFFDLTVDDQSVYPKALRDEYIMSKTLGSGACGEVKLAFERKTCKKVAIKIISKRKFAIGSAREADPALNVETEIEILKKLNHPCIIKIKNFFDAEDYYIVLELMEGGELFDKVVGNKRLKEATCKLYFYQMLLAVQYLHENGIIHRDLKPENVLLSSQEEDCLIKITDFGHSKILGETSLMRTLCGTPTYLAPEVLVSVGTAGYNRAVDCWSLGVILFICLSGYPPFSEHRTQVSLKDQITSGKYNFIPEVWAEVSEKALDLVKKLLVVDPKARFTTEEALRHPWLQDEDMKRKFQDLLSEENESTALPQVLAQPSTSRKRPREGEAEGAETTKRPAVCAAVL
# Description: as §7
# as §5, with “Kinase activity measurements: Enzyme, sample, Chk peptide, 5 μm ATP, and reaction buffer are added to the holes of biotinylated reaction plates. After” for “After”
# c-Met = target: T5, c-Met (Homo sapiens, UniProt P08581); test: Kinase activity measurement, c-Met; assay type: biochemical
# T5 construct: purchased Sigma
# T5 sequence (P08581 25-1390): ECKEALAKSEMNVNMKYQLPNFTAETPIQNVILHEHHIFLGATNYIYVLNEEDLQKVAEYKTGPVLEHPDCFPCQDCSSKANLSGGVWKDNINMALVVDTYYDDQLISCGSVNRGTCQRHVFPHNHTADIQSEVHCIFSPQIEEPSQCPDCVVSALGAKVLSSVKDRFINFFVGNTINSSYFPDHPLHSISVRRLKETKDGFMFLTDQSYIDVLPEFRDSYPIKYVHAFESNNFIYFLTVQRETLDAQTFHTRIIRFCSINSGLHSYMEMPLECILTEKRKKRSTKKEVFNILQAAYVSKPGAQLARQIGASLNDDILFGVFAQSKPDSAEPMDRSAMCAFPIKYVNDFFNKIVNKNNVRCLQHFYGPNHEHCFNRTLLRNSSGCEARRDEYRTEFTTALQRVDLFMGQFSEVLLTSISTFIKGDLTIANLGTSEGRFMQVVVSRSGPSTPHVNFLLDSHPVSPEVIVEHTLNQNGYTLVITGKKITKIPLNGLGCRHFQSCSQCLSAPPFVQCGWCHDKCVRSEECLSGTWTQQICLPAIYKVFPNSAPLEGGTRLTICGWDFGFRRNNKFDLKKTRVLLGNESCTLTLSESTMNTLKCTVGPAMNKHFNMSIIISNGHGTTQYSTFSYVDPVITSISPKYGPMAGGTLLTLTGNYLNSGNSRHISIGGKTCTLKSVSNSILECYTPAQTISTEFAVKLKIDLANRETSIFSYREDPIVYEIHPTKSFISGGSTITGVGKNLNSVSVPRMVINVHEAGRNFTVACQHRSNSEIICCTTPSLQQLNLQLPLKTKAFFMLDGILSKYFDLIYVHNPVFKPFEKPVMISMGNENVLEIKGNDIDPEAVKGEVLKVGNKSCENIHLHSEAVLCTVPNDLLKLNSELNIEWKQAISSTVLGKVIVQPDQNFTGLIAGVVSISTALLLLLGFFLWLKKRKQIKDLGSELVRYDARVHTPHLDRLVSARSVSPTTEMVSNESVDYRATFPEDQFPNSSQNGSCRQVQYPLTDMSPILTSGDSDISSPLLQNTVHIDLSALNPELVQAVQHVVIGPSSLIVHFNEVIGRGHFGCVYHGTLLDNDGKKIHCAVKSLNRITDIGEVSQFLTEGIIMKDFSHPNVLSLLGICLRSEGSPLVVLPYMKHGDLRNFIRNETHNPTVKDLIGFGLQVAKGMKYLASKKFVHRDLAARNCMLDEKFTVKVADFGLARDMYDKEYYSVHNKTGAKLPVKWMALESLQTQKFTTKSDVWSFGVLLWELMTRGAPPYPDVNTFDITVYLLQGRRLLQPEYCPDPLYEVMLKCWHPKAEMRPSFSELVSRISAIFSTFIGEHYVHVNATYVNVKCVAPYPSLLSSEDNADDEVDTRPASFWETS
# Description: as §7
# as §5, with “Kinase activity measurements: Enzyme, sample, Chk peptide, 5 μm ATP, and reaction buffer are added to the holes of biotinylated reaction plates. After” for “After”
# [6] = read-out: IC50 +10 nM AZD7762, HT-29, SRB, 72 hours, drug +10 nM AZD7762
# [7] = read-out: IC50 +100 nM AZD7762, HT-29, SRB, 72 hours, drug +100 nM AZD7762
# [8] = read-out: IC50 +1 μM XC608, HT-29, SRB, 72 hours, drug +1 μM XC608
# [9] = read-out: IC50 Drug alone, HT-29, SRB, 72 hours, drug alone
# [10] = Homo sapiens, HT-29, 72 h, read-out: IC50 Drug alone
smiles,measurement,setting,value
CS(=O)(=O)O.CS(=O)(=O)O.O.O.c1cnc2ccc(Nc3nc(NC4CC4)c4nc[nH]c4n3)cc2c1 [XC302],"IC50, inhibition of cancer cell multiplication, QGY-7701",[1]; 48 hours,6.69 mg/L
same,"IC50, inhibition of cancer cell multiplication, BGC-823",[2]; 48 hours,4.77 mg/L
same,"IC50, inhibition of cancer cell multiplication, 3LL",mouse lung cancer 3LL,2.96 mg/L
O=C1[O][Pt]2([NH][C@@H]3CCCC[C@H]3[NH]2)[O]C1=O [oxaliplatin],IC50,HT-29 Cell line; [6],2.5 µM
same,IC50,HT-29 Cell line; [7],1.1 µM
same,IC50,HT-29 Cell line; [8],1.3 µM
same,IC50,HT-29 Cell line; [9],1.6 µM
"NC(=O)c1nnc(NC2CCCNC2)c2cc(-c3ccc(F)cc3)sc12 (centres unmarked) [Compound 1, 2-(4-fluorophenyl)-4-(3-piperidineamino)-thieno[2,3-d]pyridazine-7-carboxylic acid amide]",IC50,Human colon cancer HT-29 [3],1.58 µM
same,IC50,Mouse Lung Cancer (3LL),1.88 µM
"CC(=O)O[C@H]1C(=O)[C@@]2(C)[C@H]([C@H](OC(=O)c3ccccc3)[C@]3(O)C[C@H](OC(=O)[C@H](O)[C@@H](NC(=O)c4ccccc4)c4ccccc4)C(C)=C1C3(C)C)[C@]1(OC(C)=O)CO[C@@H]1C[C@@H]2O [Paclitaxel, paclitaxel]",IC50,HT-29 Cell line; [10],0.003 µM
same,IC50,HT-29 Cell line; [7],0.005 µM
same,IC50,HT-29 Cell line; [8],0.002 µM
"N.N.[Cl][Pt][Cl] [DDP, cisplatin]",IC50,HT-29 Cell line; [6],5.2 µM
same,IC50,HT-29 Cell line; [7],1.3 µM
same,IC50,HT-29 Cell line; [8],1.3 µM
same,IC50,HT-29 Cell line; [9],7.7 µM
NC(=O)c1nnc(N[C@H]2CCCNC2)c2cc(-c3cccc(F)c3)sc12 [XC608],effect on activity of Chk1 (in words),Chk1,clearly inhibits; also recorded: strongly inhibits
same,specificity for Chk1 (conclusion in words),Chk1,specific Chk1 inhibitor
same,inhibition at 1 µM,"Chk1; 1 μM, read-out: Inhibition (%) (Mean ± SD) Chk1",85 ± 11.1%
same,sensitizing effects on the treatment effects of ADR and 5-fu (in words),[4],significant sensitizing effects
same,IC50,"[1]; Homo sapiens, QGY7701, 48 hours, read-out: IC50, inhibition of cancer cell multiplication, QGY-7701",5.14 mg/L
same,IC50,"[2]; Homo sapiens, BGC-823, 48 hours, read-out: IC50, inhibition of cancer cell multiplication, BGC-823",7.11 mg/L
same,IC50,"mouse lung cancer 3LL; Mus musculus, read-out: IC50, inhibition of cancer cell multiplication, 3LL",1.05 mg/L
same,effect on HER2 (in words),HER2,not apparent effect
same,inhibition at 1 µM,"HER2; 1 μM, read-out: Inhibition (%) (Mean ± SD) HER2",10.2 ± 1.3%
same,sensitizing effect on gemcitabine,"HT-29 Cell line; cell cultures, gemcitabine",more than 20 times
same,sensitizing effects on cytotoxic antitumor drugs at the cellular level (in words),HT-29 Cell line; gemcitabine,strong sensitizing effects
same,sensitizing effects on cytotoxic antitumor drugs at the cellular level (in words),"HT-29 Cell line; gemcitabine, listed as XC-608",effective in sensitizing
same,effect on EGFR (in words),EGFR,not apparent effect
same,inhibition at 1 µM,"EGFR; 1 μM, read-out: Inhibition (%) (Mean ± SD) EGFR",15.9 ± 5.3%
same,sensitizing effects on the treatment effects of ADR and 5-fu (in words),human colon cancer HT-29 [5],significant sensitizing effects
same,effect on cdc2 phosphorylation induced by topoisomerase I (in words),cdc2 phosphorylation,eliminates; also recorded: reduces
same,effect on activity of Chk2 (in words),Chk2,clearly inhibits; also recorded: strongly inhibits
same,inhibition at 1 µM,"Chk2; 1 μM, read-out: Inhibition (%) (Mean ± SD) Chk2",90 ± 13.2%
same,effect on c-met (in words),c-Met,not apparent effect
same,inhibition at 1 µM,"c-Met; 1 μM, read-out: Inhibition (%) (Mean ± SD) c-Met",15.9%
"O=c1[nH]cc(F)c(=O)[nH]1 [Compound 5-Fu, 5-fluorouracil]",IC50,HT-29 Cell line; [10],1.1 µM
same,IC50,HT-29 Cell line; [6],1 µM
same,IC50,HT-29 Cell line; [7],0.3 µM
same,IC50,HT-29 Cell line; [8],0.2 µM
NC(=O)Nc1cc(-c2cccc(F)c2)sc1C(=O)N[C@H]1CCCNC1 [AZD7762],inhibition at 0.1 µM,"Chk2; 100 nM, read-out: Inhibition (%) (Mean ± SD) Chk2",99%
